Data published in publication PMC11699688, “Unravelling the outcome of L-glutaminase produced by Streptomyces sp. strain 5 M as an anti-neoplasm activity” (Microbial Cell Factories, 2025).

Tested on: T1, L-glutaminase
T1 construct: native extracellular enzyme purified from culture (ammonium sulfate, DEAE-cellulose, Sephacryl S-300); 52 kDa by SDS-PAGE (54 kDa in discussion); monomer
Experiment: steady-state kinetics, ammonia release by Nesslerization
Assay type: biochemical, Streptomyces sp. 5 M
Details: substrate 2-5 mM; pH and temperature of the kinetic run not printed (optimum pH 7.5, 40 °C)
Text: steady-state kinetics, ammonia release by Nesslerization on L-glutaminase | the purified L-glutaminase from Streptomyces sp.

Km: 2620 µM
SMILES: NC(=O)CC[C@H](N)C(=O)O [L-glutamine]
